Measurements taken from article PMC11167517, “Synthesis, computational docking and molecular dynamics studies of a new class of spiroquinoxalinopyrrolidine embedded chromanone hybrids as potent anti-cholinesterase agents” (RSC Advances, 2024).

How the values were obtained:
[1] = target: T1, butyrylcholine esterase from equine serum (BChE) (Equus caballus, UniProt P81908); assay: biochemical; conditions: for BChE selectivity: IC50(AChE)/IC50(BChE); for IC50: in vitro, triplicate, read-out: BChE inhibition IC50 μM (±SD)
T1 construct: esterase from equine serum; from tissue; host or cells: equine serum
T1 sequence (P81908 whole entry): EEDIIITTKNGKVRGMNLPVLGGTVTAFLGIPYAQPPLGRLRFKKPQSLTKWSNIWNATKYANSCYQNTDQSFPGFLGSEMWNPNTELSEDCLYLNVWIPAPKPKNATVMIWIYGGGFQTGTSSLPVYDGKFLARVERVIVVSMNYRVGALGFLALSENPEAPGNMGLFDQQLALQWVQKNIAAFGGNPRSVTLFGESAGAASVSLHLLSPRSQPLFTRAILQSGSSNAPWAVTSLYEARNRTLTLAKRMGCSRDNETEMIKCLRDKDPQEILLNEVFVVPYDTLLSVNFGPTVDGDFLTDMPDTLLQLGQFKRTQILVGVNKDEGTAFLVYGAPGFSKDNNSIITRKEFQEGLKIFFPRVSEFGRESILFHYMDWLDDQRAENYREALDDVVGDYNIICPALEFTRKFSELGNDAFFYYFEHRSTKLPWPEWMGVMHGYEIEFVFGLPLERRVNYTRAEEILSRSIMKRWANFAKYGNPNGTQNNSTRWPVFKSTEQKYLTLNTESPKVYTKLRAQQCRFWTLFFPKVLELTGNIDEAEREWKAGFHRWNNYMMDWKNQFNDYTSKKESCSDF
Procedure: (§1) Acetylcholine is an important neurotransmitter involved in memory and cognition.[34] The enzymes AChE and BChE act on these neurotransmitters and degrade them to attenuate acetylcholine-mediated effects.[35] In neurodegenerative diseases, a reduced acetyl choline level is detrimental, leading to impaired memory and cognition.[36] […]
(§2) of test samples and 20 µL of 0.09 units/mL acetylcholinesterase enzyme. After 15 min. of incubation at 25 °C, 10 µL of 10 mM 5,50 -dithiobis-2-nitrobenzoic acid (DTNB) was added into each well followed by 10 µL of 14 mM acetylthiocholine iodide. Thirty minutes after the initiation of enzymatic reaction, absorbance of the colored end-product was measured using BioTek Power Wave X 340 Microplate Spectrophotometer at 412 nm. For butyrylcholinesterase (BuChE) inhibitory assay, the same procedure described above was followed, except for the use of enzyme and substrate, instead of which, butyrylcholine esterase from equine serum and S-butyrylthiocholine chloride were used. IC50 value was calculated by standard protocol Each test was conducted in triplicate. Absorbance of the test samples was corrected by subtracting the absorbance of their respective blank. Percentage inhibition was calculated using […]
(§3) Absorbance of control Absorbance of Sample
(§4) Percentage of inhibition = X 100
(§5) Selectivity for AChE defined as IC 50(BChE)/IC50(AChE).
(§6) Selectivity for BChE defined as IC 50(AChE)/IC50(BChE). […]

[2] = target: acetylcholinesterase (AChE) (Electrophorus electricus, UniProt O42275); assay: In vitro acetylcholinesterase inhibitory assay (DTNB/acetylthiocholine iodide, absorbance at 412 nm); type: biochemical; conditions: IC50(BChE)/IC50(AChE)
Chain of acetylcholinesterase (AChE) (O42275 24-633): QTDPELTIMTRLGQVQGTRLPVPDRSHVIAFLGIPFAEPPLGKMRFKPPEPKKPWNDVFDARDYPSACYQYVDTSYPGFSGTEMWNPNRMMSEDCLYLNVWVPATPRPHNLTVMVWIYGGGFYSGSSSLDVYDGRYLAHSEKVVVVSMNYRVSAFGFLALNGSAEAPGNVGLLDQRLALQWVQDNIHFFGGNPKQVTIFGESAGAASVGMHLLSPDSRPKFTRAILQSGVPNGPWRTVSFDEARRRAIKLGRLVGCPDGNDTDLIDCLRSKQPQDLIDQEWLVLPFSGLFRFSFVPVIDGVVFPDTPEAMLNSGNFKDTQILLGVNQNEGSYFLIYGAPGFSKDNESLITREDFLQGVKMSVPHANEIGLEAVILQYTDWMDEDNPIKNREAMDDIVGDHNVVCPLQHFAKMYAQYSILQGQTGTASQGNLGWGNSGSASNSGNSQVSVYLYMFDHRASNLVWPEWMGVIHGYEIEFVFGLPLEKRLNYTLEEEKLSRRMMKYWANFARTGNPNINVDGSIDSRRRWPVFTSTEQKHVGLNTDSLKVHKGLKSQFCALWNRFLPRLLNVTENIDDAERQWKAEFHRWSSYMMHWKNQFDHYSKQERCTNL
Procedure: as §1, §2, §3, §4, §5, §6

| Compound | BChE selectivity [1] | IC50 [1] | AChE selectivity [2] |
| --- | --- | --- | --- |
| COc1ccc([C@@H]2[C@@H](Cc3ccccc3)NC3(c4ccccc4-c4nc5ccccc5nc43)[C@]23COc2ccccc2C3=O)cc1 (stereo partly drawn) [Compound 5i] | 0.77 | 29.18 ± 0.12 µM | 1.29 |
| O=C1c2ccccc2OC[C@@]12[C@H](c1ccc(F)cc1)[C@@H](Cc1ccccc1)NC21c2ccccc2-c2nc3ccccc3nc21 (stereo partly drawn) [Compound 5f] | 0.18 | 18.14 ± 0.06 µM | 5.67 |
| O=C1c2ccccc2OC[C@@]12[C@H](c1ccc(Br)cc1)[C@@H](Cc1ccccc1)NC21c2ccccc2-c2nc3ccccc3nc21 (stereo partly drawn) [Compound 5b] | 0.76 | 24.12 ± 0.16 µM | 1.32 |
| COc1cccc([C@@H]2[C@@H](Cc3ccccc3)NC3(c4ccccc4-c4nc5ccccc5nc43)[C@]23COc2ccccc2C3=O)c1 (stereo partly drawn) [Compound 5h] | 0.80 | 30.15 ± 0.1 µM | 1.25 |
| O=C1c2ccccc2OC[C@@]12[C@H](c1ccccc1)[C@@H](Cc1ccccc1)NC21c2ccccc2-c2nc3ccccc3nc21 (stereo partly drawn) [Compound 5a] | 0.79 | 28.12 ± 0.25 µM | 1.27 |
| Cc1ccc([C@@H]2[C@@H](Cc3ccccc3)NC3(c4ccccc4-c4nc5ccccc5nc43)[C@]23COc2ccccc2C3=O)cc1 (stereo partly drawn) [Compound 5g] | 0.72 | 29.8 ± 0.12 µM | 1.38 |
| O=C1c2ccccc2OC[C@@]12[C@H](c1ccc(Cl)cc1)[C@@H](Cc1ccccc1)NC21c2ccccc2-c2nc3ccccc3nc21 (stereo partly drawn) [Compound 5d] | 0.37 | 21.02 ± 0.18 µM | 2.72 |
| O=C1c2ccccc2OC[C@@]12[C@H](c1cccc([N+](=O)[O-])c1)[C@@H](Cc1ccccc1)NC21c2ccccc2-c2nc3ccccc3nc21 (stereo partly drawn) [Compound 5j] | 0.52 | 20.16 ± 0.2 µM | 1.93 |
| O=C1c2ccccc2OCC12C(c1ccccc1Cl)C(Cc1ccccc1)NC21c2ccccc2-c2nc3ccccc3nc21 (stereo not drawn) [Compound 5c, 5-Benzyl-4-(2-chlorophenyl)-2-spiro[2,6′′]indenoquinoxalino-3-spiro[3,3′]-chromanonopyrrolidine] | 0.20 | 22.16 ± 0.14 µM | 4.92 |
| O=C1c2ccccc2OC[C@@]12[C@H](c1ccccc1F)[C@@H](Cc1ccccc1)NC21c2ccccc2-c2nc3ccccc3nc21 (stereo partly drawn) [Compound 5e] | 0.26 | 20.2 ± 0.24 µM | 3.83 |
